Where a SMILES comes first, the peptide text is derived from it. The star is where a group is joined. Nicotinoyl(6-CF3) = O=C(c1ccc(C(F)(F)F)nc1)*; X1 = O=C(c1cncc(C(F)(F)F)c1)*; X5 = O=C(c1ccc[n+]([O-])c1)*; Nicotinoyl = O=C(c1cccnc1)*; X2 = O=C(c1cccnc1C(F)(F)F)*; X3 = O=C(c1cccnc1Br)*; X4 = Cc1ccncc1C(=O)*; X6 = O=C(c1cccnc1S)*
What was measured:
[1] = molecular target: T1, DNA repair protein RAD51 homolog 1 (Homo sapiens) (UniProt Q06609); assay: Binding affinity to RAD51 (158 to 180 residues) (unknown origin) assessed as alpha-helical content at 15 uM by circular dichroism spectroscopy (reference value: 26.9%)
T1 sequence (whole entry): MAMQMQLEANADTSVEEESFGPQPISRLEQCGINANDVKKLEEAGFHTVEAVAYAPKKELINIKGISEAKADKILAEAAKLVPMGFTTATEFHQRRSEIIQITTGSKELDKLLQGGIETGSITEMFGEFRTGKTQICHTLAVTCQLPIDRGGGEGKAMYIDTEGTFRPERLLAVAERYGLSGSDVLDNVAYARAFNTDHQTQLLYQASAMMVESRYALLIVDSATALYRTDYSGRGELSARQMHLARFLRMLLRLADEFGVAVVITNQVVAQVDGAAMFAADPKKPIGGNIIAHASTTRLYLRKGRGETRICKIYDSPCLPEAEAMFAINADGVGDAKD

[2] = molecular target: T1, DNA repair protein RAD51 homolog 1 (Homo sapiens); assay: Binding affinity to RAD51 (158 to 180 residues) (unknown origin) assessed as quenching rate constant by fluorescence spectroscopy
[3] = molecular target: T1, DNA repair protein RAD51 homolog 1 (Homo sapiens); assay: Binding affinity to RAD51 (158 to 180 residues) (unknown origin) assessed as binding constant by fluorescence spectroscopy
[4] = molecular target: T1, DNA repair protein RAD51 homolog 1 (Homo sapiens); assay: Binding affinity to RAD51 (158 to 180 residues) (unknown origin) assessed as beta-sheet content at 15 uM by circular dichroism spectroscopy (reference value: 17.7%)
[5] = molecular target: T1, DNA repair protein RAD51 homolog 1 (Homo sapiens); assay: Binding affinity to RAD51 (158 to 180 residues) (unknown origin) assessed as beta-turn content at 15 uM by circular dichroism spectroscopy (reference value: 16.2%)
[6] = molecular target: T1, DNA repair protein RAD51 homolog 1 (Homo sapiens); assay: Binding affinity to RAD51 (158 to 180 residues) (unknown origin) assessed as random coil content at 15 uM by circular dichroism spectroscopy (reference value: 39.2%)
HEK293 = assay: Cytotoxicity against HEK293 cells assessed as reduction in cell viability at 200 uM; type: toxicity, cell-based; conditions: human, hek293, 200 µM
MCF7 = assay: Cytotoxicity against human MCF7 cells assessed as cell viability at 100 uM relative to control; type: functional; conditions: read-out: Activity
[7] = molecular target: T1, DNA repair protein RAD51 homolog 1 (Homo sapiens); assay: Binding affinity to RAD51 (158 to 180 residues) (unknown origin) assessed as reduction in fluorescence intensity by fluorescence spectroscopy; conditions: dose 6-30 µM, DDE = dose-dependent effect

Row | Activity [1] [%] | Kq [2] | Binding constant [3] | Activity [4] [%] | Activity [5] [%] | Activity [6] [%] | Activity [7] | SMILES | Activity (HEK293) | viability at 100 µM (MCF7) [%]
1 | 48.3 | 1.24 10^12/M | 1.97 10^4/M | 11.2 | 18.4 | 22.1 |  | CC(C)C[C@H](NC(=O)[C@H](Cc1ccc(O)cc1)NC(=O)c1ccc(C(F)(F)F)nc1)C(=O)N[C@@H](CCC(N)=O)C(=O)N[C@@H](CC(N)=O)C(=O)N[C@H](C(=O)N[C@@H](Cc1ccccc1)C(=O)N[C@@H](CCCCN)C(=O)N[C@H](C(=O)N[C@@H](CO)C(=O)N[C@@H](CCCCN)C(=O)N[C@@H](CCCNC(=N)N)C(=O)N[C@@H](CCC(N)=O)C(=O)N[C@@H](CO)C(=O)N[C@@H](Cc1ccccc1)C(=O)N[C@@H](C)C(=O)N1CCC[C@H]1C(N)=O)C(C)C)[C@@H](C)O ({Nicotinoyl(6-CF3)}-YLQNTFKVSKRQSFAP-NH2) | Non-Toxic | 79.1
2 | 37.1 | 1.13 10^12/M | 0.33 10^4/M | 18.5 | 26.4 | 18 | Dde | CC(C)C[C@H](NC(=O)[C@@H](N)Cc1ccc(O)cc1)C(=O)N[C@@H](CCC(N)=O)C(=O)N[C@@H](CC(N)=O)C(=O)N[C@H](C(=O)N[C@@H](Cc1ccccc1)C(=O)N[C@@H](CCCCN)C(=O)N[C@H](C(=O)N[C@@H](CO)C(=O)N[C@@H](CCCCN)C(=O)N[C@@H](CCCNC(=N)N)C(=O)N[C@@H](CCC(N)=O)C(=O)N[C@@H](CO)C(=O)N[C@@H](Cc1ccccc1)C(=O)N[C@@H](C)C(=O)N1CCC[C@H]1C(=O)O)C(C)C)[C@@H](C)O (H-YLQNTFKVSKRQSFAP-OH) | Non-Toxic | 90.6
3 | 40.6 | 1.34 10^12/M | 0.89 10^4/M | 13.2 | 14 | 32.2 |  | CC(C)C[C@H](NC(=O)[C@H](Cc1ccc(O)cc1)NC(=O)c1ccc[n+]([O-])c1)C(=O)N[C@@H](CCC(N)=O)C(=O)N[C@@H](CC(N)=O)C(=O)N[C@H](C(=O)N[C@@H](Cc1ccccc1)C(=O)N[C@@H](CCCCN)C(=O)N[C@H](C(=O)N[C@@H](CO)C(=O)N[C@@H](CCCCN)C(=O)N[C@@H](CCCNC(=N)N)C(=O)N[C@@H](CCC(N)=O)C(=O)N[C@@H](CO)C(=O)N[C@@H](Cc1ccccc1)C(=O)N[C@@H](C)C(=O)N1CCC[C@H]1C(N)=O)C(C)C)[C@@H](C)O (X5-YLQNTFKVSKRQSFAP-NH2) |  | 
4 | 51.3 | 0.61 10^12/M | 4.07 10^4/M | 26.3 | 11.6 | 10.8 |  | CC(C)C[C@H](NC(=O)[C@H](Cc1ccc(O)cc1)NC(=O)c1cccnc1C(F)(F)F)C(=O)N[C@@H](CCC(N)=O)C(=O)N[C@@H](CC(N)=O)C(=O)N[C@H](C(=O)N[C@@H](Cc1ccccc1)C(=O)N[C@@H](CCCCN)C(=O)N[C@H](C(=O)N[C@@H](CO)C(=O)N[C@@H](CCCCN)C(=O)N[C@@H](CCCNC(=N)N)C(=O)N[C@@H](CCC(N)=O)C(=O)N[C@@H](CO)C(=O)N[C@@H](Cc1ccccc1)C(=O)N[C@@H](C)C(=O)N1CCC[C@H]1C(N)=O)C(C)C)[C@@H](C)O (X2-YLQNTFKVSKRQSFAP-NH2) | Non-Toxic | 81.5
5 | 37.7 | 1.7 10^12/M | 0.18 10^4/M | 13.1 | 21.6 | 27.6 |  | CC(C)C[C@H](NC(=O)[C@H](Cc1ccc(O)cc1)NC(=O)c1cccnc1Br)C(=O)N[C@@H](CCC(N)=O)C(=O)N[C@@H](CC(N)=O)C(=O)N[C@H](C(=O)N[C@@H](Cc1ccccc1)C(=O)N[C@@H](CCCCN)C(=O)N[C@H](C(=O)N[C@@H](CO)C(=O)N[C@@H](CCCCN)C(=O)N[C@@H](CCCNC(=N)N)C(=O)N[C@@H](CCC(N)=O)C(=O)N[C@@H](CO)C(=O)N[C@@H](Cc1ccccc1)C(=O)N[C@@H](C)C(=O)N1CCC[C@H]1C(N)=O)C(C)C)[C@@H](C)O (X3-YLQNTFKVSKRQSFAP-NH2) |  | 

Second part, the compound before the results:

Row | SMILES | Activity [1] [%] | Kq [2] | Binding constant [3] | Activity [4] [%] | Activity [5] [%] | Activity [6] [%] | Activity [7] | Activity (HEK293) | viability at 100 µM (MCF7) [%]
6 | Cc1ccncc1C(=O)N[C@@H](Cc1ccc(O)cc1)C(=O)N[C@@H](CC(C)C)C(=O)N[C@@H](CCC(N)=O)C(=O)N[C@@H](CC(N)=O)C(=O)N[C@H](C(=O)N[C@@H](Cc1ccccc1)C(=O)N[C@@H](CCCCN)C(=O)N[C@H](C(=O)N[C@@H](CO)C(=O)N[C@@H](CCCCN)C(=O)N[C@@H](CCCNC(=N)N)C(=O)N[C@@H](CCC(N)=O)C(=O)N[C@@H](CO)C(=O)N[C@@H](Cc1ccccc1)C(=O)N[C@@H](C)C(=O)N1CCC[C@H]1C(N)=O)C(C)C)[C@@H](C)O (X4-YLQNTFKVSKRQSFAP-NH2) | 37.9 | 1.77 10^12/M | 0.76 10^4/M | 11.3 | 18.1 | 32.7 |  |  | 
7 | CC(C)C[C@H](NC(=O)[C@H](Cc1ccc(O)cc1)NC(=O)c1cccnc1)C(=O)N[C@@H](CCC(N)=O)C(=O)N[C@@H](CC(N)=O)C(=O)N[C@H](C(=O)N[C@@H](Cc1ccccc1)C(=O)N[C@@H](CCCCN)C(=O)N[C@H](C(=O)N[C@@H](CO)C(=O)N[C@@H](CCCCN)C(=O)N[C@@H](CCCNC(=N)N)C(=O)N[C@@H](CCC(N)=O)C(=O)N[C@@H](CO)C(=O)N[C@@H](Cc1ccccc1)C(=O)N[C@@H](C)C(=O)N1CCC[C@H]1C(N)=O)C(C)C)[C@@H](C)O (Nicotinoyl-YLQNTFKVSKRQSFAP-NH2) | 43.4 | 0.96 10^12/M | 1.26 10^4/M | 13.9 | 20.1 | 22.6 |  | Non-Toxic | 80.9
8 | CC(C)C[C@H](NC(=O)[C@H](Cc1ccc(O)cc1)NC(=O)c1cncc(C(F)(F)F)c1)C(=O)N[C@@H](CCC(N)=O)C(=O)N[C@@H](CC(N)=O)C(=O)N[C@H](C(=O)N[C@@H](Cc1ccccc1)C(=O)N[C@@H](CCCCN)C(=O)N[C@H](C(=O)N[C@@H](CO)C(=O)N[C@@H](CCCCN)C(=O)N[C@@H](CCCNC(=N)N)C(=O)N[C@@H](CCC(N)=O)C(=O)N[C@@H](CO)C(=O)N[C@@H](Cc1ccccc1)C(=O)N[C@@H](C)C(=O)N1CCC[C@H]1C(N)=O)C(C)C)[C@@H](C)O (X1-YLQNTFKVSKRQSFAP-NH2) | 46.7 | 1.32 10^12/M | 1.56 10^4/M | 13.4 | 16.5 | 23.4 |  | Non-Toxic | 71
9 | CC(C)C[C@H](NC(=O)[C@H](Cc1ccc(O)cc1)NC(=O)c1cccnc1S)C(=O)N[C@@H](CCC(N)=O)C(=O)N[C@@H](CC(N)=O)C(=O)N[C@H](C(=O)N[C@@H](Cc1ccccc1)C(=O)N[C@@H](CCCCN)C(=O)N[C@H](C(=O)N[C@@H](CO)C(=O)N[C@@H](CCCCN)C(=O)N[C@@H](CCCNC(=N)N)C(=O)N[C@@H](CCC(N)=O)C(=O)N[C@@H](CO)C(=O)N[C@@H](Cc1ccccc1)C(=O)N[C@@H](C)C(=O)N1CCC[C@H]1C(N)=O)C(C)C)[C@@H](C)O (X6-YLQNTFKVSKRQSFAP-NH2) | 36.2 | 5.85 10^12/M | 0.72 10^4/M | 10.8 | 28.8 | 24.2 |  |  | 
